Results reported in patent publication US20210198277A1, “AMINE-SUBSTITUTED ARYL OR HETEROARYL COMPOUNDS” (Epizyme, Inc., priority 2016, published 2021).

Biological target: T1, EHMT2 (Homo sapiens, UniProt Q96KQ7)
T1 construct: host or cells: MDA-MB-231
T1 sequence (Q96KQ7 1-1210): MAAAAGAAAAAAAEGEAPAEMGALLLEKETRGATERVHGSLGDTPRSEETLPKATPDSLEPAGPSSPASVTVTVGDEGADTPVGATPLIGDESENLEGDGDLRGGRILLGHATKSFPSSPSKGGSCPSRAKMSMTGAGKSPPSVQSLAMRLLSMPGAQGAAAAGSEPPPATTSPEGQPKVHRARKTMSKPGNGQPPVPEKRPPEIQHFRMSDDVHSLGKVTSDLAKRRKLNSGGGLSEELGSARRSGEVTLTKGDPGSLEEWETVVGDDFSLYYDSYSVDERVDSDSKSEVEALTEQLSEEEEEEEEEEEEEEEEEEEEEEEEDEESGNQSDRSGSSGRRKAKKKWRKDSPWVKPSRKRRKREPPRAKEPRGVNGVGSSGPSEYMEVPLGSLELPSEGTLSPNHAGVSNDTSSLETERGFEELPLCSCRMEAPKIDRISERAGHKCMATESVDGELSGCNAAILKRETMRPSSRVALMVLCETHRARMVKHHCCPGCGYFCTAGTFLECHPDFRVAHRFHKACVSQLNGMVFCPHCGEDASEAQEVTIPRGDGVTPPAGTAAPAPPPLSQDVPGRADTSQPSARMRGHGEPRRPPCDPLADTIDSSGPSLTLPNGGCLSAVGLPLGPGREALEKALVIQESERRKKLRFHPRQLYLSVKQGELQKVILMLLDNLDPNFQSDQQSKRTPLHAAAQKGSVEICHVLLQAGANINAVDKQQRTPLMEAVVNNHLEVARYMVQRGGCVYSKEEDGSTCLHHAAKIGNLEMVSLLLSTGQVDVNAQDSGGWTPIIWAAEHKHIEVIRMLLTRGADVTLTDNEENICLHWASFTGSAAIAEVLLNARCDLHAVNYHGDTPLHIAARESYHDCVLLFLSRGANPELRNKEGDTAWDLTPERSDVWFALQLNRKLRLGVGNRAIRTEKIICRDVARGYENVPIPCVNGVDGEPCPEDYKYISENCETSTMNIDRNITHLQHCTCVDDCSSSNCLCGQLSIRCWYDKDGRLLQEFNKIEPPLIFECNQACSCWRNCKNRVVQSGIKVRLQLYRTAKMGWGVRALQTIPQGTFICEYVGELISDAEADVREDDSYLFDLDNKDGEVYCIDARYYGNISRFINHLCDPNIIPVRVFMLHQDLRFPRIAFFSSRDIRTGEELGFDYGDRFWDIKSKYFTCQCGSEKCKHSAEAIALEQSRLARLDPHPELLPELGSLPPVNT
Assay: MDA-MB-231 H3K9me2 in-cell Western assay (EHMT2 ICW)
Type: cell-based
Conditions: Table III; MDA-MB-231 H3K9me2 in-cell Western; read-out: EHMT2 ICW (IC50 μM)
Method in brief: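 IC50 values came from a variable-slope four-parameter fit on triplicate wells, using % inhibition from the 800/700 nm infrared signal ratio (anti-H3K9me2 versus DRAQ5 DNA stain). Before fixation and immunostaining, MDA-MB-231 cells, 3,000 per well, were exposed to compound for 48 h at 37 °C.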

| Compound | IC50 |
| --- | --- |
| CNc1cc(C)nc(Nc2ccc(OC)c(O[C@H]3C[C@@H](N(C)C)C3)c2)n1 (single isomer, unassigned) [Compound 317, N^2-(3-((1s,3s)-3-(dimethylamino)cyclobutoxy)-4-methoxyphenyl)-N^4,6-dimethylpyrimidine-2,4-diamine] | 1 to 10 µM |
| CNc1ccnc(Nc2ccc(OC)c(OC[C@@H]3CN(C)C[C@H]3C)c2)n1 (single isomer, unassigned) [Compound 438] | > 10 µM |
| CNc1ccnc(Nc2ccc(OC)c(OC[C@H]3CN(C)C[C@@H]3C)c2)n1 (single isomer, unassigned) [Compound 439] | 0.1 to 1 µM |
| CNc1ccnc(Nc2cccc(COCCN3CCCC3)n2)c1 [Compound 267, N^4-methyl-N^2-(6-((2-(pyrrolidin-1-yl)ethoxy)methyl)pyridin-2-yl)pyridine-2,4-diamine] | > 10 µM |
| CNc1cc(Nc2cccc(COCCN3CCCC3)n2)ccn1 [Compound 268, N^2-methyl-N^4-(6-((2-(pyrrolidin-1-yl)ethoxy)methyl)pyridin-2-yl)pyridine-2,4-diamine] | > 10 µM |
| CNc1nc(C2CCN(C)CC2)c2cc(OC)c(OCCCN3CCCC3)cc2n1 [Compound 270] | 0.1 to 1 µM |
| CNc1ccnc(Nc2ccc(OC)c(OCCCN3CC[C@H](F)C3)c2)n1 [Compound 271] | > 10 µM |
| CNc1cc(Nc2ccc(OC)c(OCCCN3CCCC3)c2)ncc1F [Compound 272, 5-fluoro-N^2-(4-methoxy-3-(3-(pyrrolidin-1-yl)propoxy)phenyl)-N^4-methylpyridine-2,4-diamine] | 1 to 10 µM |
| CNc1cc(Nc2ccc(OC)c(OCCCN3CCCC3)c2)cc(C(F)(F)F)n1 [Compound 273] | > 10 µM |
| CNc1ccnc(Nc2cccc(N3CCC(N)C3=O)c2)n1 (stereo not shown) [Compound 274] | > 10 µM |
| CNc1ccnc(Nc2cccc(N3CCC(N(C)C)C3=O)c2)n1 (stereo not shown) [Compound 275] | > 10 µM |
| CNc1ccnc(Nc2cccc(OCC(F)CN3CCCC3)c2)n1 (stereo not shown) [Compound 276, N^2-(3-(2-fluoro-3-(pyrrolidin-1-yl)propoxy)phenyl)-N^4-methylpyrimidine-2,4-diamine] | > 10 µM |
| CNc1ccnc(Nc2cccc(OCC(F)(F)CN3CCCC3)c2)n1 [Compound 277, N^2-(3-(2,2-difluoro-3-(pyrrolidin-1-yl)propoxy)phenyl)-N^4-methylpyrimidine-2,4-diamine] | > 10 µM |
| COc1ccc(Nc2nccc(NCC3CC(C)(C)NC(C)(C)C3)n2)cc1OCCCN1CCCC1 [Compound 278] | 1 to 10 µM |
| CNc1ccnc(Nc2cccc(C(C)OCCN3CCCC3)c2)n1 (stereo not shown) [Compound 279, N^4-methyl-N^2-(3-(1-(2-(pyrrolidin-1-yl)ethoxy)ethyl)phenyl) pyrimidine-2,4-diamine] | > 10 µM |
| CCN(CC)CCCOc1cc(Nc2nccc(NC)n2)ccc1OC [Compound 280, N^2-(3-(3-(diethylamino)propoxy)-4-methoxyphenyl)-N^4-methylpyrimidine-2,4-diamine] | 1 to 10 µM |
| CNc1ccnc(Nc2ccc(OC)c(OCCCN3CCC(S(C)(=O)=O)C3)c2)n1 (stereo not shown) [Compound 282] | > 10 µM |
| CNc1ccnc(Nc2ccc(OC)c(OCCCN3CCC(OC)C3)c2)n1 (stereo not shown) [Compound 283, N^2-(4-methoxy-3-(3-(3-methoxypyrrolidin-1-yl)propoxy)phenyl)-N^4-methylpyrimidine-2,4-diamine] | 0.1 to 1 µM |
| CNc1ccnc(Nc2ccc(OC)c(OCCCN3CCC4(COC4)C3)c2)n1 [Compound 284] | > 10 µM |

| Compound | IC50 |
| --- | --- |
| CNc1ccnc(Nc2ccc(OC)c(OCCCN3CCC(C(F)(F)F)C3)c2)n1 (stereo not shown) [Compound 285, N^2-(4-methoxy-3-(3-(3-(trifluoromethyl)pyrrolidin-1-yl)propoxy)phenyl)-N^4-methylpyrimidine-2,4-diamine] | > 10 µM |
| CNc1ccnc(Nc2ccc(OC)c(OCCCN3CCC(O)C3)c2)n1 (stereo not shown) [Compound 286, 1-(3-(2-methoxy-5-((4-(methylamino)pyrimidin-2-yl)amino)phenoxy)propyl)pyrrolidin-3-ol] | 0.1 to 1 µM |
| CNc1ccnc(Nc2ccc(OC)c(OCCCN3CCC(C#N)C3)c2)n1 (stereo not shown) [Compound 287, 1-(3-(2-methoxy-5-((4-(methylamino)pyrimidin-2-yl)amino)phenoxy)propyl)pyrrolidine-3-carbonitrile] | > 10 µM |
| CNc1ccnc(Nc2ccc(OC)c(OCCC3CCCN3C)c2)n1 (stereo not shown) [Compound 288, N^2-(4-methoxy-3-(2-(1-methylpyrrolidin-2-yl)ethoxy)phenyl)-N^4-methylpyrimidine-2,4-diamine] | 1 to 10 µM |
| CNc1ccnc(Nc2ccc(OC)c(OCC3CCCN3C)c2)n1 (stereo not shown) [Compound 289, N^2-(4-methoxy-3-((1-methylpyrrolidin-2-yl)methoxy)phenyl)-N^4-methylpyrimidine-2,4-diamine] | 0.1 to 1 µM |
| CNc1ccnc(Nc2ccc(OC)c(OCCCN3CCCC3C)c2)n1 (stereo not shown) [Compound 290, N^2-(4-methoxy-3-(3-(2-methylpyrrolidin-1-yl)propoxy)phenyl)-N^4-methylpyrimidine-2,4-diamine] | 1 to 10 µM |
| CCNC(=O)c1cc(Nc2nccc(NC)n2)ccn1 [Compound 291, N-ethyl-4-((4-(methylamino)pyrimidin-2-yl)amino)picolinamide] | > 10 µM |
| CNc1ccnc(Nc2ccc(OC)c(OCCCN3CCC(C)C3)c2)n1 (stereo not shown) [Compound 293, N^2-(4-methoxy-3-(3-(3-methylpyrrolidin-1-yl)propoxy)phenyl)-N^4-methylpyrimidine-2,4-diamine] | 1 to 10 µM |
| CNc1ccnc(Nc2cccc3oc(CCN(C)C)nc23)n1 [Compound 295] | > 10 µM |
| CNc1ccnc(Nc2cccc(N3CC(N)CC3=O)c2)n1 (stereo not shown) [Compound 296] | > 10 µM |
| CNc1ccnc(Nc2cccc(N3CCC(N)C3)c2)n1 (stereo not shown) [Compound 297] | > 10 µM |
| CNc1ccnc(Nc2ccc(OC)c(OCCCN3CC4CC4C3)c2)n1 (stereo not shown) [Compound 298, N^2-(3-(3-(3-azabicyclo[3.1.0]hexan-3-yl)propoxy)-4-methoxyphenyl)-N^4-methylpyrimidine-2,4-diamine] | 0.1 to 1 µM |
| CNc1ccnc(Nc2ccc(OC)c(OC[C@H](O)CN3CCCC3)c2)n1 [Compound 299, (R)-1-(2-methoxy-5-((4-(methylamino)pyrimidin-2-yl)amino)phenoxy)-3-(pyrrolidin-1-yl)propan-2-ol] | 0.1 to 1 µM |
| CNc1ccnc(Nc2ccc(OC)c(OC[C@@H](O)CN3CCCC3)c2)n1 [Compound 300, (S)-1-(2-methoxy-5-((4-(methylamino)pyrimidin-2-yl)amino)phenoxy)-3-(pyrrolidin-1-yl)propan-2-ol] | 0.1 to 1 µM |
| CNc1cc(C)nc(Nc2cc(F)c(OC)c(OCCCN3CCCC3)c2)n1 [Compound 301, N2-(3-fluoro-4-methoxy-5-(3-(pyrrolidin-1-yl)propoxy)phenyl)-N4,6-dimethylpyrimidine-2,4-diamine] | > 10 µM |
| CNc1cc(C)nc(Nc2cc(OCCCN3CCCC3)c(OC)cc2F)n1 [Compound 302, N^2-(2-fluoro-4-methoxy-5-(3-(pyrrolidin-1-yl)propoxy)phenyl)-N^4,6-dimethylpyrimidine-2,4-diamine] | > 10 µM |
| CNc1cc(C)nc(Nc2cc(OCCCN3CCCC3)c(OC)cn2)n1 [Compound 303, N^2-(5-methoxy-4-(3-(pyrrolidin-1-yl)propoxy)pyridin-2-yl)-N^4,6-dimethylpyrimidine-2,4-diamine] | 1 to 10 µM |
| COc1cnc(Nc2nccc3[nH]ccc23)cc1OCCCN1CCCC1 [Compound 304] | 0.1 to 1 µM |
